Target: T1, Sirt1 (Homo sapiens, UniProt Q96EB6)
T1 sequence (Q96EB6 2-747): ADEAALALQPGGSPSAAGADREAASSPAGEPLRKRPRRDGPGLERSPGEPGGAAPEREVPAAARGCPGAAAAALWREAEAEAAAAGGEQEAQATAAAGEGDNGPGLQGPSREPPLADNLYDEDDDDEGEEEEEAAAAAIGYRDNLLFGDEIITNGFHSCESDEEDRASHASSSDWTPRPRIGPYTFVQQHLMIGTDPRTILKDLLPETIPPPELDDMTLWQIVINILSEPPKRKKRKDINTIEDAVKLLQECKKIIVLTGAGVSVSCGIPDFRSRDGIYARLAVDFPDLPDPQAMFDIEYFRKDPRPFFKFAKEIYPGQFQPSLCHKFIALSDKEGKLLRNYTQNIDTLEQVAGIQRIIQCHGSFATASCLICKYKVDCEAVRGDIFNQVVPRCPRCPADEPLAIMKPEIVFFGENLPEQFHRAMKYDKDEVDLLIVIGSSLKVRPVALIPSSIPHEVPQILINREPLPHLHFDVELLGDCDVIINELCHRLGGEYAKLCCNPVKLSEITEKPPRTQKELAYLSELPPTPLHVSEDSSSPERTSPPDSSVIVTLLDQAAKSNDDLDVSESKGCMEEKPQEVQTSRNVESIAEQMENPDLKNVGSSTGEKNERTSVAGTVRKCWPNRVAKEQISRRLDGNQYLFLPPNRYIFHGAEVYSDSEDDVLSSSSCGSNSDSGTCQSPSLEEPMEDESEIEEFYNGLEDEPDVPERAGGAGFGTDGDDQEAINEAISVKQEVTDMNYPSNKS
Assay: nicotinamidase/glutamate dehydrogenase coupled assay
Type: biochemical

**Q.** `Nc1ncnc2c1ncn2[C@@H]1O[C@H](COP(=O)(O)OP(=O)(O)OC[C@H]2OC(O)[C@H](O)[C@@H]2O)[C@@H](O)[C@H]1O` (stereo partly shown) [ADP-ribose] was tested. Which IC50 did it give?
**A.** 77 ± 4 µM

Reference: publication PMC2752052 (Analytical biochemistry, 2009)
